Experimental data reported in US9421298B2, “Tissue adhesive based on nitrogen-modified aspartates” (Adhesys Medical GmbH, priority 2011, dated 2016).

Tested on: L929 cells
Assay: Cytotoxicity in accordance with ISO 10993-5:2009 with L929 cells
Format: cell-based
Settings: prepolymer A cured with an equivalent amount of curing agent
Method: The prepolymer A was cured with an equivalent amount of 2. The cytotoxicity was measured in accordance with ISO 10993-5:2009 with L929 cells. […] The system can therefore not be classed as being cytotoxic.

CCOC(=O)CC(NCCCCCCNCCCCCCNC(CC(=O)OCC)C(=O)OCC)C(=O)OCC (stereo not shown) [Curing agent 2, triethyl 4-oxo-3-oxa-7,14,21-triazatricosane-6,22,23-tricarboxylate]
Cytotoxicity (cell viability): No reduction in cell viability
